GI50 data for seven compounds are collected here from patent publication US20230322753A1, “HETEROARYL DERIVATIVE, METHOD FOR PREPARATION THEREOF, AND PHARMACEUTICAL COMPOSITION COMPRISING SAME AS ACTIVE INGREDIENT” (VORONOI INC., priority 2020, published 2023).

Type in all cases: cell-based
Settings in all cases: Mus musculus, BaF3, 72 hours, CellTiter-Glo

Assay [1] relates to Ba/F3 cells expressing EGFR Exon20 ins NPH. In words: Ba/F3 proliferation suppression activity, cells expressing EGFR Exon20 ins NPH. The procedure:
A following experiment was carried out to evaluate the suppression activity of the compounds according to the present invention against the proliferation of Ba/F3 which expresses EGFR mutations.
(§1) For the Ba/F3 cells, a RPMI-1640 medium containing 10% FBS and 5 ng/ml IL-3 (R&D Systems) was used. The transduced Ba/F3 cells were cultured in a medium, which is same as the above medium, but 1 ug/ml puromycin (Invitrogen) was additionally added to.
(§2) 24 hours before the treatment of the cells with the compounds, 3000 to 5000 cells were distributed into each well of a white clear bottom 96 well plate (Corning). The compounds were diluted in a dimethyl sulfoxide (e.g. dilution ratio of 3:1 and total 12 concentrations) and then injected by 0.5 ul respectively, such that a final concentration amounted to 0.3 nM to 50 uM. 72 hours after the treatment with the compounds, the measurement of live cells was made in such way that these cells were stored for 10 minutes at a room temperature using a CellTiter-Glo luminescent cell-viability reagent (Promega) and then their luminescence intensities were measured using a reader (i.e. Synergy Neo, Biotek). Each test was repeated three times.
(§3) resulting values were calculated as a cell growth ratio (%) compared to a control. Then, the graphs were drawn and the […] values were calculated by using a program, GraphPad Prism version 5.0.

For assay [2], the system named is Ba/F3 cells expressing HER2 WT. The assay can be described thus: Ba/F3 proliferation suppression activity, cells expressing ErbB2 (HER2) wild type. The procedure: as §1, §2, §3
Assay [3] has as its system Ba/F3 cells expressing HER2 YVMA Exon 20ins. The assay can be described thus: Ba/F3 proliferation suppression activity, cells expressing HER2 YVMA Exon 20ins. As to the method: as §1, §2, §3

Molecules are shown by their SMILES.

In the case of `C=CC(=O)Nc1cc(Nc2cc(N3OCC[C@@H]3c3ccc(F)c(C(F)(F)F)c3)ncn2)c(OC)cc1N1CCC(N2CCN(C3CC3)[C@@H](C)C2)CC1` [Compound 52], the GI50 in assay [1], in assay [2] and in assay [3] was < 50 nM in each case.
On to `C=CCN1CCN(c2cc(OC)c(Nc3cc(N4OCC[C@@H]4c4ccc(F)c(C(F)(F)F)c4)ncn3)cc2NC(=O)C=C)CC1` [Compound 41], for which the GI50 in assay [1], in assay [2] and in assay [3] was < 50 nM each time.
For the compound `C=CC(=O)Nc1cc(Nc2cc(N3OCC[C@@H]3c3ccc(F)c(C(F)(F)F)c3)ncn2)c(OC)cc1N1CCC(N2CCO[C@@H](C)C2)CC1` [Compound 58], the concentration for 50% growth inhibition (GI50) in assay [1] and in assay [3] was < 50 nM in each case.
Regarding `C=CC(=O)Nc1cc(Nc2cc(N3OCC[C@@H]3c3ccc(F)c(C(F)(F)F)c3)ncn2)c(OC)cc1N1CCN(CCC)CC1` [Compound 55], the GI50 in assay [1], in assay [2] and in assay [3] was < 50 nM each time.
In the case of `C=CC(=O)Nc1cc(Nc2cc(N3OCC[C@@H]3c3ccc(F)c(C(F)(F)F)c3)ncn2)c(OC)cc1N1CCC(N2CCN(C3CC3)[C@H](C)C2)CC1` [Compound 53], the GI50 in assay [1] and in assay [3] was < 50 nM each time.
As for `C=CC(=O)Nc1cc(Nc2cc(N3OCC[C@@H]3c3cccc(C(F)(F)F)c3F)ncn2)c(OC)cc1N(C)CCN(C)C` [Compound 61], the GI50 in assay [1] and in assay [3] was < 50 nM in each case.
As to `C=CC(=O)Nc1cc(Nc2cc(N3OCC[C@@H]3c3cccc(C(F)(F)F)c3F)ncn2)c(OC)cc1N1CCN(C)CC1` [Compound 60], the GI50 in assay [1] and in assay [3] was < 50 nM in each case.
